What all share (type): cell-based
For experiment [1], the system named is H1975 cells. Put plainly: ZN-c3 dose response, percent cell density (cell titer glow), PPP2R1A siRNA vs scrambled control. The note with it: Homo sapiens, NCI-H1975, 72 h. The procedure:
FIG. 3 depicts the percent cell density of H1975 (a second non-small cell lung cancer cell line) cells after treatment with a 10-point dose response of ZN-c3 for 72 hours, comparing cells transfected with siRNA to PPP2R1A against those transfected with a scrambled control siRNA. Percent cell density is calculated using cell titer glow analysis. PPP2R1A siRNA transfected cells have approximately 3.7-fold increase in sensitivity to ZN-c3 (TABLE 2).
(§1) The effect of PPP2R1A knockdown on influencing cancer cell susceptibility to ZN-c3 was evaluated. Various cancer cell lines were transfected with PPP2R1A siRNA or control scrambled siRNA and the cells were treated with a 10 point dose response of ZN-c3 for 72 hours. Percent cell density was calculated using cell titer glow analysis. The PPP2R1A siRNA targeted the following bases Chr.19: 52189802-52226425. SiRNA transfection was started 48 hours prior to treatment with ZN-c3. […]
A second non-small cell lung cancer cell line H1975 was treated with PPP2R1A siRNA or control siRNA and transfected cells were assessed for sensitivity to ZN-c3 by measurement of reduction in percent cell density (FIG. 3). PPP2R1A siRNA mediated knockdown of PPP2R1A was evaluated by comparison of PPP2R1A expression in conditions treated with siCTRL and siPPPR12A (FIG. 4).

The test system of experiment [2] is HEC-59 endometrial cancer cells. As to the kind of experiment: Percent inhibition of cell growth, ZN-c3, LB-100 or ZN-c3+LB-100 (cell titer glow). The settings on record: HEC-59 (PPP2R1A wild-type), 72 hours; ZN-c3 400 nM, LB-100 1 μM. The procedure: FIG. 18 depicts the percent inhibition of cell growth in HEC-59 endometrial cancer cells after treatment with ZN-c3 alone, the PP2A catalytic inhibitor LB-100 alone, or the combination of ZN-c3+LB-100. HEC-59 cell line is PPP2R1A wild-type. […] Percent inhibition is calculated using cell titer glow analysis.
Various cancer cell lines were treated with ZN-c3 alone, the PP2A catalytic inhibitor LB-100 alone, or the combination of ZN-c3+LB-100. As in Example 1 and Example 2, the treatment period was 72 hours and percent inhibition was calculated using cell titer glow analysis.
The endometrial cancer cell line HEC-59 was assessed for sensitivity to ZN-c3 alone, LB-100 alone, or the combination of ZN-c3+LB-100 (FIG. 18).

Experiment [3] relates to H1975 lung cancer cells. Put plainly: ZN-c3 dose response, percent cell density (cell titer glow), CRISPR knockout of PPP2R1A vs non-targeting guide RNA. The settings on record: Homo sapiens, NCI-H1975, 72 h. Here is the method:
FIG. 15 depicts the percent cell density of H1975 lung cancer cells after treatment with a 10-point dose response of ZN-c3 for 72 hours, comparing cells transduced with a non-targeting guide RNA to against those with genetic knockout of PPP2R1A after transduction with a CRISPR guide RNA targeting PPP2R1A. Percent cell density is calculated using cell titer glow analysis. PPP2R1A CRISPR knockout cells have approximately 1.9 fold increase in sensitivity to ZN-c3 (TABLE 8).
Having observed that siRNA mediated knockdown of PPP2R1A sensitized cancer cell lines to treatment with ZN-c3, it was also of interest to evaluate if CRISPR mediated PPP2R1A knockout produced a similar effect. Various cancer cell lines were transfected with a CRISPR guide RNA targeting PPP2R1A or nontargeting guide RNA and the cells were treated with a 10-point dose response of ZN-c3 for 72 hours. […] Percent cell density was calculated using cell titer glow analysis.
The lung cancer cell line H1975 was treated with a CRISPR guide RNA targeting PPP2R1A or nontargeting guide RNA and transfected cells were assessed for sensitivity to ZN-c3 by measurement of reduction in percent cell density (FIG. 15). CRISPR mediated knockout of PPP2R1A was evaluated by comparison of PPP2R1A expression in conditions treated with nontargeting guide RNA and PPPR12A targeting CRISPR guide RNA (FIG. 16).

Experiment [4] deals with SW620 cells. As to the kind of experiment: ZN-c3 dose response, percent cell density (cell titer glow), PPP2R1A siRNA vs scrambled control. The note with it: Homo sapiens, SW-620, 72 h. The procedure: FIG. 7 depicts the percent cell density of SW620 (a colorectal cancer cell line) cells after treatment with a 10-point dose response of ZN-c3 for 72 hours, comparing cells transfected with siRNA to PPP2R1A against those transfected with a scrambled control siRNA. Percent cell density is calculated using cell titer glow analysis. PPP2R1A siRNA transfected cells have approximately 1.9-fold increase in sensitivity to ZN-c3 (TABLE 4).
as §1
A colorectal cancer cell line SW620 was treated with PPP2R1A siRNA or control siRNA and transfected cells were assessed for sensitivity to ZN-c3 by measurement of reduction in percent cell density (FIG. 7). PPP2R1A siRNA mediated knockdown of PPP2R1A was evaluated by comparison of PPP2R1A expression in conditions treated with siCTRL and siPPPR12A (FIG. 8).

Experiment [5] has as its system Hs578T cells. The description is as above. The note with it: Homo sapiens, Hs-578T, 72 h. Here is the method: FIG. 5 depicts the percent cell density of Hs578T (a breast cancer cell line) cells after treatment with a 10-point dose response of ZN-c3 for 72 hours, comparing cells transfected with siRNA to PPP2R1A against those transfected with a scrambled control siRNA. Percent cell density is calculated using cell titer glow analysis. PPP2R1A siRNA transfected cells have approximately 2.4-fold increase in sensitivity to ZN-c3 (TABLE 3).
as §1
A breast cancer cell line Hs578T was treated with PPP2R1A siRNA or control siRNA and transfected cells were assessed for sensitivity to ZN-c3 by measurement of reduction in percent cell density (FIG. 5). PPP2R1A siRNA mediated knockdown of PPP2R1A was evaluated by comparison of PPP2R1A expression in conditions treated with siCTRL and siPPPR12A (FIG. 6).

Regarding `C=CCn1c(=O)c2cnc(Nc3ccc(N4CCN(C)CC4)cc3)nc2n1-c1ccc2c(n1)[C@@](O)(CC)CC2` [ZN-c3, (R)-2-allyl-1-(7-ethyl-7-hydroxy-6,7-dihydro-5H-cyclopenta[b]pyridin-2-yl)-6-((4-(4-methylpiperazin-1-yl)phenyl)amino)-1,2-dihydro-3H-pyrazolo[3,4-d]pyrimidin-3-one], the EC50 amounted to 560 nM in experiment [1] (siCTRL); 150 nM in experiment [1] (siPPP2R1A); 516 nM in experiment [3] (sgNT (non-targeting guide RNA)); 275 nM in experiment [3] (sgPPP2R1A (CRISPR knockout)); 450 nM in experiment [4] (siCTRL); 236 nM in experiment [4] (siPPP2R1A). Also, the EC50 in experiment [5] (siCTRL) is 170 nM; in experiment [5] (siPPP2R1A), 71.3 nM. The “percent inhibition of cell growth” value in experiment [2] is given as “approximately 25%”.
